Patent US6706663B2, “Herbicidal 3-heterocyclic substituted benzisothiazole and benzisoxazole compounds” (Wyeth, priority 2000, dated 2004)

Columns and labels:
[1] = system: ABUTH (Abutilon theophrasti); assay: Postemergence herbicidal evaluation; assay type: in vivo, Medic.; details: postemergence
Method in brief: (§1)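 Visual 0–9 injury scores versus control plants, covering stand, vigour, malformation, size, chlorosis and general appearance, taken four to five weeks post-spray and averaged over replicate tests. Plants were sprayed at roughly two weeks old and held on greenhouse benches.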

[2] = system: AMBEL (Ambrosia artemisifolia); assay: Postemergence herbicidal evaluation; assay type: in vivo, L.; details: postemergence
Method in brief: as §1

[3] = system: CASOB (Cassia obtusifolia); assay: Postemergence herbicidal evaluation; assay type: in vivo, L.; details: postemergence
Method in brief: as §1

[4] = system: CHEAL (Chenopodium album); assay: Postemergence herbicidal evaluation; assay type: in vivo, L.; details: postemergence
Method in brief: as §1

GALAP (Galium aparine) [5] = assay: Postemergence herbicidal evaluation; assay type: in vivo; details: postemergence
Method in brief: as §1

[6] = system: IPOHE (Ipomoea hederacea); assay: Postemergence herbicidal evaluation; assay type: in vivo, (L.) Jacq.; details: postemergence
Method in brief: as §1

[7] = system: ECHCG (Echinochloa crus-galli); assay: Postemergence herbicidal evaluation; assay type: in vivo, (L.) Beau; details: postemergence
Method in brief: as §1

[8] = system: GLXMAW (Soybean, Williams); assay: Postemergence herbicidal evaluation; assay type: in vivo, Glycine max, (L.) Merr. cv Williams; details: postemergence
Method in brief: as §1

ORYSAT (Rice, Tebonnet) [9] = assay: Postemergence herbicidal evaluation; assay type: in vivo, Oryza sativa, (L.) Tebonnet; details: postemergence
Method in brief: as §1

[10] = system: TRZAWR (Wheat, Winter, cv Riband); assay: Postemergence herbicidal evaluation; assay type: in vivo, Triticum aestivum; details: postemergence
Method in brief: as §1

ZEAMX (Corn, Field) [11] = assay: Postemergence herbicidal evaluation; assay type: in vivo, Zea mays, L.; details: postemergence
Method in brief: as §1

[12] = system: ABUTH (Abutilon theophrasti); assay: Preemergence herbicidal evaluation; assay type: in vivo, Medic.; details: preemergence, rated 4-5 weeks after treatment
[13] = system: AMBEL (Ambrosia artemisifolia); assay: Preemergence herbicidal evaluation; assay type: in vivo, L.; details: preemergence, rated 4-5 weeks after treatment
Method in brief: (§2)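 Preemergence soil spray, aq. acetone; greenhouse; visual 0–9 score vs control at 4–5 wk.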

GALAP (Galium aparine) [14] = assay: Preemergence herbicidal evaluation; assay type: in vivo; details: preemergence, rated 4-5 weeks after treatment
Method in brief: as §2

[15] = system: IPOHE (Ipomoea hederacea); assay: Preemergence herbicidal evaluation; assay type: in vivo, (L.) Jacq.; details: preemergence, rated 4-5 weeks after treatment
[16] = system: ECHCG (Echinochloa crus-galli); assay: Preemergence herbicidal evaluation; assay type: in vivo, (L.) Beau; details: preemergence, rated 4-5 weeks after treatment
Method in brief: as §2

GLXMA (Soybean) = assay: Preemergence herbicidal evaluation; assay type: in vivo, Glycine max, (L.) Merr.; details: preemergence, rated 4-5 weeks after treatment
ZEAMX (Corn, Field) [17] = assay: Preemergence herbicidal evaluation; assay type: in vivo, Zea mays, L.; details: preemergence, rated 4-5 weeks after treatment
[18] = system: ECHORC (Echinochloa oryzoides); assay: Flooded paddy, preemergence weed control; assay type: in vivo, Echinochloa oryzoides (Ard.) Fritsch.; details: rated 3-4 weeks after treatment, 0-9 rating scale
Method in brief: (§3)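 Seeds or propagating organs were sown in the top 0.5 cm of silt loam soil, flooded, and the water kept 1.5 to 3 cm above the soil surface throughout. Plants were grown in the greenhouse and rated visually on a 0-9 scale against a control.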

CYPIR (Cyperus iria) = assay: Flooded paddy, preemergence weed control; assay type: in vivo; details: rated 3-4 weeks after treatment, 0-9 rating scale
Method in brief: as §3

[19] = system: MOOVA (Monochoria vaginalis); assay: Flooded paddy, preemergence weed control; assay type: in vivo, Presl.; details: rated 3-4 weeks after treatment, 0-9 rating scale
Method in brief: as §3

[20] = system: SAGPY (Sagittaria pygmaea); assay: Flooded paddy, preemergence weed control; assay type: in vivo, L.; details: rated 3-4 weeks after treatment, 0-9 rating scale
Method in brief: as §3

ORYSAT (Rice, Tebonnet) [21] = assay: Flooded paddy, post-transplant rice tolerance; assay type: in vivo, Oryza sativa, (L.) Tebonnet; details: flooded paddy, post-transplant rice, rated 3-4 weeks after treatment, 0-9 rating scale
Method in brief: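 Ten-day-old seedlings, 2/pot, silt loam; flood kept 1.5–3 cm over soil; herbicide applied post-transplant; greenhouse; score 0–9 visual vs control.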

## [2-[5-[3,6-dihydro-3-methyl-2,6-dioxo-4-(trifluoromethyl)-1(2H)-pyrimidinyl]-1,2-benzisothiazol-3-1]-1,3-dioxolan-4-yl]methyl thiocyanate [Compound 89]
[1]; rate 0.0080 kg/ha
  ABUTH herbicidal rating: 8.0
[1]; rate 0.0320 kg/ha
  ABUTH herbicidal rating: 9.0
[1]; rate 0.0620 kg/ha
  ABUTH herbicidal rating: 9.0
[1]; rate 0.1250 kg/ha
  ABUTH herbicidal rating: 9.0
[2]; rate 0.0080 kg/ha
  AMBEL herbicidal rating: 7.0
[2]; rate 0.0320 kg/ha
  AMBEL herbicidal rating: 9.0
[2]; rate 0.0620 kg/ha
  AMBEL herbicidal rating: 9.0
[2]; rate 0.1250 kg/ha
  AMBEL herbicidal rating: 9.0
[3]; rate 0.0080 kg/ha
  CASOB herbicidal rating: 9.0
[3]; rate 0.0320 kg/ha
  CASOB herbicidal rating: 9.0
[3]; rate 0.0620 kg/ha
  CASOB herbicidal rating: 9.0
[3]; rate 0.1250 kg/ha
  CASOB herbicidal rating: 9.0
[4]; rate 0.0080 kg/ha
  CHEAL herbicidal rating: 8.0
[4]; rate 0.0320 kg/ha
  CHEAL herbicidal rating: 9.0
[4]; rate 0.0620 kg/ha
  CHEAL herbicidal rating: 9.0
[4]; rate 0.1250 kg/ha
  CHEAL herbicidal rating: 9.0
GALAP (Galium aparine) [5]; rate 0.0080 kg/ha
  GALAP herbicidal rating: 2.0
GALAP (Galium aparine) [5]; rate 0.0320 kg/ha
  GALAP herbicidal rating: 3.0
GALAP (Galium aparine) [5]; rate 0.0620 kg/ha
  GALAP herbicidal rating: 7.0
GALAP (Galium aparine) [5]; rate 0.1250 kg/ha
  GALAP herbicidal rating: 9.0
[6]; rate 0.0080 kg/ha
  IPOHE herbicidal rating: 7.0
[6]; rate 0.0320 kg/ha
  IPOHE herbicidal rating: 9.0
[6]; rate 0.0620 kg/ha
  IPOHE herbicidal rating: 9.0
[6]; rate 0.1250 kg/ha
  IPOHE herbicidal rating: 9.0
[7]; rate 0.0080 kg/ha
  ECHCG herbicidal rating: 0.0
[7]; rate 0.0320 kg/ha
  ECHCG herbicidal rating: 0.0
[7]; rate 0.0620 kg/ha
  ECHCG herbicidal rating: 3.0
[7]; rate 0.1250 kg/ha
  ECHCG herbicidal rating: 4.0
[8]; rate 0.0080 kg/ha
  GLXMAW herbicidal rating: 7.0
[8]; rate 0.0320 kg/ha
  GLXMAW herbicidal rating: 7.5
[8]; rate 0.0620 kg/ha
  GLXMAW herbicidal rating: 8.0
[8]; rate 0.1250 kg/ha
  GLXMAW herbicidal rating: 9.0
ORYSAT (Rice, Tebonnet) [9]; rate 0.0080 kg/ha
  ORYSAT herbicidal rating: 1.5
ORYSAT (Rice, Tebonnet) [9]; rate 0.0320 kg/ha
  ORYSAT herbicidal rating: 3.0
ORYSAT (Rice, Tebonnet) [9]; rate 0.0620 kg/ha
  ORYSAT herbicidal rating: 3.0
ORYSAT (Rice, Tebonnet) [9]; rate 0.1250 kg/ha
  ORYSAT herbicidal rating: 4.0
[10]; rate 0.0080 kg/ha
  TRZAWR herbicidal rating: 1.5
[10]; rate 0.0320 kg/ha
  TRZAWR herbicidal rating: 3.0
[10]; rate 0.0620 kg/ha
  TRZAWR herbicidal rating: 3.0
[10]; rate 0.1250 kg/ha
  TRZAWR herbicidal rating: 4.0
ZEAMX (Corn, Field) [11]; rate 0.0080 kg/ha
  ZEAMX herbicidal rating: 3.0
ZEAMX (Corn, Field) [11]; rate 0.0320 kg/ha
  ZEAMX herbicidal rating: 3.5
ZEAMX (Corn, Field) [11]; rate 0.0620 kg/ha
  ZEAMX herbicidal rating: 3.5
ZEAMX (Corn, Field) [11]; rate 0.1250 kg/ha
  ZEAMX herbicidal rating: 3.5
[12]; rate 0.0620 kg/ha
  Preemergence herbicidal rating ABUTH: 9.0
[12]; rate 0.1250 kg/ha
  Preemergence herbicidal rating ABUTH: 9.0
[12]; rate 0.2500 kg/ha
  Preemergence herbicidal rating ABUTH: 9.0
[13]; rate 0.0620 kg/ha
  Preemergence herbicidal rating AMBEL: 4.0
[13]; rate 0.1250 kg/ha
  Preemergence herbicidal rating AMBEL: 9.0
[13]; rate 0.2500 kg/ha
  Preemergence herbicidal rating AMBEL: 9.0
GALAP (Galium aparine) [14]; rate 0.0620 kg/ha
  Preemergence herbicidal rating GALAP: 3.0
GALAP (Galium aparine) [14]; rate 0.1250 kg/ha
  Preemergence herbicidal rating GALAP: 6.0
GALAP (Galium aparine) [14]; rate 0.2500 kg/ha
  Preemergence herbicidal rating GALAP: 7.0
[15]; rate 0.0620 kg/ha
  Preemergence herbicidal rating IPOHE: 7.0
[15]; rate 0.1250 kg/ha
  Preemergence herbicidal rating IPOHE: 8.0
[15]; rate 0.2500 kg/ha
  Preemergence herbicidal rating IPOHE: 9.0
[16]; rate 0.0620 kg/ha
  Preemergence herbicidal rating ECHCG: 0.0
[16]; rate 0.1250 kg/ha
  Preemergence herbicidal rating ECHCG: 3.0
[16]; rate 0.2500 kg/ha
  Preemergence herbicidal rating ECHCG: 7.0
GLXMA (Soybean); rate 0.0620 kg/ha
  Preemergence herbicidal rating GLXMA: 3.0
GLXMA (Soybean); rate 0.1250 kg/ha
  Preemergence herbicidal rating GLXMA: 6.0
GLXMA (Soybean); rate 0.2500 kg/ha
  Preemergence herbicidal rating GLXMA: 9.0
ZEAMX (Corn, Field) [17]; rate 0.0620 kg/ha
  Preemergence herbicidal rating ZEAMX: 0.0
ZEAMX (Corn, Field) [17]; rate 0.1250 kg/ha
  Preemergence herbicidal rating ZEAMX: 3.0
ZEAMX (Corn, Field) [17]; rate 0.2500 kg/ha
  Preemergence herbicidal rating ZEAMX: 4.0
[18]; rate 0.0320 kg/ha
  ECHORC herbicidal rating: 3.0
[18]; rate 0.1250 kg/ha
  ECHORC herbicidal rating: 5.0
CYPIR (Cyperus iria); rate 0.0320 kg/ha
  CYPIR herbicidal rating: 0.0
CYPIR (Cyperus iria); rate 0.1250 kg/ha
  CYPIR herbicidal rating: 8.0
[19]; rate 0.0320 kg/ha
  MOOVA herbicidal rating: 0.0
[19]; rate 0.1250 kg/ha
  MOOVA herbicidal rating: 8.0
[20]; rate 0.0320 kg/ha
  SAGPY herbicidal rating: 0.0
[20]; rate 0.1250 kg/ha
  SAGPY herbicidal rating: 9.0
ORYSAT (Rice, Tebonnet) [21]; rate 0.0320 kg/ha
  ORYSAT herbicidal rating (transplanted rice tolerance): 0.0
ORYSAT (Rice, Tebonnet) [21]; rate 0.1250 kg/ha
  ORYSAT herbicidal rating (transplanted rice tolerance): 6.0
